Results on 15 compounds are retold here after EP4813463A2, “TYK2 INHIBITORS AND COMPOSITIONS AND METHODS THEREOF” (Lynk Pharmaceuticals Co. Ltd., priority 2023, dated 2024).

Where two headings read alike, the source gives them in different places.

One test addresses T1, JAK1-JH2 domain (Homo sapiens, UniProt P23458).
T1 construct: JAK1-JH2 domain or TYK2-JH2 domain enzyme in assay buffer
Nature of the test: Binding activity test for JH2 domain of JAK1 (Tb-antibody/tracer FRET). The conditions noted are these: JH2 domain enzyme; 60 min at 25°C, then 4°C overnight; read-out: JAK1 JH2 Binding IC50. Summed up:
(§1)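 Competitive TR-FRET binding: compounds dispensed as an 11-point 3-fold dilution series, then Tb-labelled antibody and tracer added to the JH2 protein system. Incubated at 25°C, then overnight at 4°C; FRET signal read on Envision and IC50 (nM) derived.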

The next test deals with T2, TYK2-JH2 domain (Homo sapiens, UniProt P29597).
T2 construct: JAK1-JH2 domain or TYK2-JH2 domain enzyme in assay buffer
Kind of test: Binding activity test for JH2 domain of TYK2 (Tb-antibody/tracer FRET). The conditions noted are these: for IC50: JH2 domain enzyme, 60 min at 25°C, then 4°C overnight, read-out: TYK2 JH2 Binding IC50; for JAK1/TYK2 selectivity: ratio of JAK1 JH2 to TYK2 JH2 binding IC50. Summed up: as §1

Test [1] concerns Ba/F3-FL-TYK2-P760L cells. Kind of test: Anti-proliferative assay in engineered Ba/F3 cells (Cell-Titer Glo, 72 h). The class given is cell-based. As to conditions: Mus musculus, concentration that causes 50% growth inhibition, read-out: Baf3-FL-T2P760L. Summed up:
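Ba/F3 cells carrying Tel-dimerization/JAK kinase fusion, IL-3-independent, in RPMI-1640 + 10% FBS; 9-point 3-fold dilutions from 20 µM (0.1% DMSO) added after 24 h, 72 h at 37 °C. Viability by Cell-Titer Glo ATP luminescence; % inhibition versus DMSO cells, blank-corrected, giving IC50.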

The mark [2] stands for this setting: BaF3, 72 h, 72 h compound treatment.

T1 sequence (P23458 583-855 limits assumed): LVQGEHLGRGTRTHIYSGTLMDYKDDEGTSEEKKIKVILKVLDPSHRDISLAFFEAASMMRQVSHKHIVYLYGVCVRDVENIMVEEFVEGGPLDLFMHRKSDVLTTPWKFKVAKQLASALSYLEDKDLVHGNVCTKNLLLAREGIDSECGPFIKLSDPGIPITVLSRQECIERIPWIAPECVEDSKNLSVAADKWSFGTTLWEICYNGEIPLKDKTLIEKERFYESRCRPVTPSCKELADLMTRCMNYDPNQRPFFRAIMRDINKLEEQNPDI
T2 sequence (P29597 589-875 limits assumed): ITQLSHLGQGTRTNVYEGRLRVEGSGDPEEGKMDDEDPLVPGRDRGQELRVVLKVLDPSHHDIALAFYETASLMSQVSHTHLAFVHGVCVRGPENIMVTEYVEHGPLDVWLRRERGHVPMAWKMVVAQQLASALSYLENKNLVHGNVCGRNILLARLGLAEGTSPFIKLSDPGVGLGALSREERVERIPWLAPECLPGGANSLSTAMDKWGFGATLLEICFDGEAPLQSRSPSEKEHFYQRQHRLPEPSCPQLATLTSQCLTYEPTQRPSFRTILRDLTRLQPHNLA

Consider `CCOC(=O)c1cnc(NC(=O)C2CC2)nc1Nc1cccc(-c2ncn(C)n2)c1OC` [Example 57, Ethyl 2-(cyclopropanecarboxamido)-4-((2-methoxy-3-(1-methyl-1H-1,2,4-triazol-3-yl)phenyl)amino)pyrimidine-5-carboxylate], for which the IC50 on JAK1-JH2 domain is more than 298 nM; on TYK2-JH2 domain, 7.33 nM; in test [1] (setting [2]) it was 719 nM. For the same compound, on TYK2-JH2 domain, the JAK1/TYK2 selectivity was more than 40.75.
For `COC(=O)c1cnc(NC(=O)C2CC2)cc1Nc1cccc(-c2ncn(C)n2)c1OC` [Example 58, Methyl 6-(cyclopropanecarboxamido)-4-((2-methoxy-3-(1-methyl-1H-1,2,4-triazol-3-yl)phenyl)amino)nicotinate], in that order: 11.9 nM, 0.304 nM, 32.4 nM and 39.30.
The like results for `[2H]C([2H])([2H])OC(=O)c1cnc(NC(=O)C2CC2)cc1Nc1ncn2ncc(CC)c2c1OC` [Example 59, Methyl-d3 6-(cyclopropanecarboxamido)-4-((3-ethyl-4-methoxypyrazolo[1,5-c]pyrimidin-5-yl)amino)nicotinate] were, in that order, 44.1 nM, 0.834 nM, 208 nM and 52.94.
The like results for `COC(=O)c1cnc(NC(=O)C2CC2)cc1Nc1cccc(-c2ccn(C)n2)c1OC` [Example 60, Methyl 6-(cyclopropanecarboxamido)-4-((2-methoxy-3-(1-methyl-1H-pyrazol-3-yl)phenyl)amino)nicotinate] were, in that order, 17.9 nM, 0.546 nM, 94.4 nM and 32.87.
Regarding `COC(=O)c1cnc(NC(=O)C2CC2)cc1Nc1nccc(-c2cnn(C)n2)c1OC` [Example 62, Methyl 6-(cyclopropanecarboxamido)-4-((3-methoxy-4-(2-methyl-2H-1,2,3-triazol-4-yl)pyridin-2-yl)amino)nicotinate], the IC50 is 154 nM at JAK1-JH2 domain, 0.98 nM at TYK2-JH2 domain and more than 1000 nM in test [1] (setting [2]). Besides, the JAK1/TYK2 selectivity at TYK2-JH2 domain stood at 156.97.
Consider `[2H]C([2H])([2H])CC(=O)c1cnc(NC(=O)C2CC2)cc1Nc1nc2ccc(N3CC(OC)C3)cn2n1` [Example 64, N-[4-[[6-(3-methoxyazetidin-1-yl)-[1,2,4]triazolo[1,5-a]pyridin-2-yl]amino]-5-(3,3,3-trideuteriopropanoyl)-2-pyridyl]cyclopropanecarboxamide], for which the IC50 on JAK1-JH2 domain came out at 34.7 nM; on TYK2-JH2 domain it was 0.141 nM; in test [1] (setting [2]), 13 nM. Moreover, the JAK1/TYK2 selectivity on TYK2-JH2 domain is reported as 246.
The like results for `COc1c([C@H](OC)C(F)(F)F)ccc2c1c(Nc1cc(NC(=O)C3CC3)ncc1C(=O)O)nn2C` [Example 77, (S)-6-(Cyclopropanecarboxamido)-4-((4-methoxy-1-methyl-5-(2,2,2-trifluoro-1-methoxyethyl)-1H-indazol-3-yl)amino)nicotinic acid] were, in that order, 185 nM, 0.08 nM, more than 1000 nM and 2307.96.
The like results for `[2H]C([2H])([2H])OC(=O)c1cnc(NC(=O)C2CC2)cc1Nc1cnn2ccc([C@H](OC)C(F)(F)F)c(OC)c12` [Example 79, Methyl-d3 (S)-6-(cyclopropanecarboxamido)-4-((4-methoxy-5-(2,2,2-trifluoro-1-methoxyethyl)pyrazolo[1,5-a]pyridin-3-yl)amino)nicotinate] were, in that order, 42.7 nM, 0.28 nM, 109 nM and 150.32.
Take `[2H]C([2H])([2H])OC(=O)c1cnc(NC(=O)C2CC2)cc1Nc1cnn2ccc([C@H](OC([2H])([2H])[2H])C(F)(F)F)c(OC)c12` [Example 80, Methyl-d3 (S)-6-(cyclopropanecarboxamido)-4-((4-methoxy-5-(2,2,2-trifluoro-1-(methoxy-d3)ethyl)pyrazolo[1,5-a]pyridin-3-yl)amino)nicotinate]: the IC50 on JAK1-JH2 domain was determined as 46 nM; on TYK2-JH2 domain, 0.26 nM; in test [1] (setting [2]), 88.9 nM. Also, the JAK1/TYK2 selectivity on TYK2-JH2 domain is reported as 176.08.
Take `[2H]C([2H])([2H])OC(=O)c1cnc(NC(=O)C2CC2)cc1Nc1ncn2ncc(C(OC)C(F)(F)F)c2c1OC` (centres unmarked) [Example 81, Methyl-d3 6-(cyclopropanecarboxamido)-4-((4-methoxy-3-(2,2,2-trifluoro-1-methoxyethyl)pyrazolo[1,5-c]pyrimidin-5-yl)amino)nicotinate]: the IC50 on JAK1-JH2 domain is more than 298 nM; on TYK2-JH2 domain it was 4.02 nM; in test [1] (setting [2]), 306 nM. Moreover, on TYK2-JH2 domain, the JAK1/TYK2 selectivity is more than 74.25.
Consider `CCOC(=O)c1cnc(NC(=O)C2CC2)cc1Nc1cnn2ccc([C@H](O)C(F)(F)F)c(OC)c12` [Example 83, (S)-ethyl 6-(cyclopropanecarboxamido)-4-((4-methoxy-5-(2,2,2-trifluoro-1-hydroxyethyl)pyrazolo[1,5-a]pyridin-3-yl)amino)nicotinate], for which the IC50 at JAK1-JH2 domain is more than 298 nM; on TYK2-JH2 domain, 0.76 nM; in test [1] (setting [2]) it was 173 nM. The JAK1/TYK2 selectivity on TYK2-JH2 domain is listed as more than 393.28.
As to `[2H]C([2H])([2H])NC(=O)c1cnc(NC(=O)C2CC2)cc1Nc1cnn2ccc(C(O)(C(F)(F)F)C(F)(F)F)c(OC)c12` [Example 84, 6-(Cyclopropanecarboxamido)-4-((5-(1,1,1,3,3,3-hexafluoro-2-hydroxypropan-2-yl)-4-methoxypyrazolo[1,5-a]pyridin-3-yl)amino)-N-(methyl-d3)nicotinamide], the IC50 at JAK1-JH2 domain was more than 298 nM; on TYK2-JH2 domain, 4.24 nM; in test [1] (BaF3, 72 h compound treatment), 634 nM. Also, at TYK2-JH2 domain, the JAK1/TYK2 selectivity is reported as more than 70.42.
As for `COC(=O)c1nnc(NC(=O)C2CC2)cc1Nc1cccc(-c2ncn(C)n2)c1OC` [Example 85, Methyl 6-(cyclopropanecarboxamido)-4-((2-methoxy-3-(1-methyl-1H-1,2,4-triazol-3-yl)phenyl)amino)pyridazine-3-carboxylate], the IC50 on JAK1-JH2 domain is more than 298 nM; on TYK2-JH2 domain, 198 nM; in test [1] (setting [2]) it was more than 5000 nM. The JAK1/TYK2 selectivity on TYK2-JH2 domain is recorded as more than 1.51.
On to `[2H]C([2H])([2H])NC(=O)c1nnc(NC(=O)C2CC2)cc1Nc1cccc(-c2ncn(C)n2)c1C(C)=O` [Example 87, 4-((2-Acetyl-3-(1-methyl-1H-1,2,4-triazol-3-yl)phenyl)amino)-6-(cyclopropanecarboxamido)-N-(methyl-d3)pyridazine-3-carboxamide], for which the IC50 on JAK1-JH2 domain is more than 298 nM; at TYK2-JH2 domain, more than 298 nM; in test [1] (setting [2]) it was 1860 nM.
For the compound `CCOC(=O)c1cnc(NC(=O)C2CC2)cc1Nc1cnn2ccc([C@H](OC)C(F)(F)F)c(OC)c12` [Example 88, Ethyl (S)-6-(cyclopropanecarboxamido)-4-((4-methoxy-5-(2,2,2-trifluoro-1-methoxyethyl)pyrazolo[1,5-a]pyridin-3-yl)amino)nicotinate], the IC50 on JAK1-JH2 domain was more than 298 nM; on TYK2-JH2 domain, 1.7 nM; in test [1] (setting [2]), 719 nM. Further, the JAK1/TYK2 selectivity at TYK2-JH2 domain is on record as more than 175.18.
